In patent publication US20080096894A1, “Anti-Bacterial Compounds” (ASTON UNIVERSITY, priority 2005, published 2008):

Experiments:
[1] = system: Proteus mirabilis NCTC 5887; assay: MIC, doubling dilution in 96-well microtitre plate; assay type: cell-based
Description: (§1) The compound was tested as follows. […] The wells were inoculated with organism ([…] of medium containing 10^6 cfu/mL) and the plates were incubated at 37° C. overnight. Where growth of organism occurred this was observed as a small button when viewed from underneath the plate. The MIC was determined as the lowest concentration inhibiting growth.

[2] = system: Staphylococcus aureus NCTC 10788; assay: MIC, doubling dilution in 96-well microtitre plate; assay type: cell-based
Description: as §1

[3] = system: C. difficile (NCTC 11204 and thirty-two clinical isolates); assay: Minimum Inhibitory Concentration (MIC) against C. difficile, microtiter plate, anaerobic, 48 hours; assay type: cell-based, Clostridium difficile
Description: (§2) Compounds 4PYcq and 4PYOfi were screened against one NCTC strain and thirty-two clinical isolates of Clostridium difficile as described below.
(§3) The antimicrobial compounds were prepared by adding 5.12 mg of each compound to 1 ml of DMSO. From each solution 100 μl was then aseptically transferred into 1 ml of sterile distilled water to give a concentration of 512 μg/ml. 100 μl of each diluted compound was then added to the first well of a sterile 96-well microliter plate. Serial dilutions were performed to give a concentration range spanning from 0 to 512 μg/ml of each compound. The microtiter plate containing the antimicrobials was left to equilibrate in an anaerobic cabinet for 3 hours before the addition of C. difficile cells. An overnight culture of C. difficile (NCTC 11204) was standardized to an OD^600 of 0.04 (approximately 10^6 CFU/ml), using Wilkins Chalgren broth and was vortexed for 60 seconds to ensure there was a uniform suspension. 100 μl of standardized culture was then added to each well of the microtiter plate, containing the equilibrated antimicrobials. The final concentrations of the antimicrobials in the wells therefore ranged from […] and the concentration of the culture was 10^5 CFU/ml in each well. The microtiter plate was incubated at 37° C., for 48 hours under anaerobic conditions. The MIC was determined as the lowest concentration of antimicrobial agent inhibiting the total growth of C. difficile cells. After incubation, the total solution from each well was aseptically spread onto a separate Wilkins chalgren agar plate. Plates were incubated for 48 hours, at 37° C., under anaerobic conditions. The number of colonies on each plate was counted after incubation and the MBC was determined as the lowest concentration of the antimicrobial agent at which 99.9% of organisms in the original inoculum were killed.

[4] = system: C. difficile (NCTC 11204 and thirty-two clinical isolates); assay: Minimum Bactericidal Concentration (MBC) against C. difficile, 99.9% kill; assay type: cell-based, Clostridium difficile
Description: as §2, §3

[5] = system: Propionibacterium acnes; assay: MIC against Propionibacterium acnes, microtitre double dilution in BHI; assay type: cell-based
Description: Compounds 4PYcq and 4PYOfi were screened against one NCTC stain and seven clinical isolates of Propionibacterium acnes as described below.
Bacterial strains of Propionibacterium acnes, stored on beads at −20° C., were plated onto Brain heart infusion (BHI) agar plates. The cultures were incubated anaerobically for 4 days at 37° C.
Bacterial suspensions were prepared by diluting bacterial suspensions with BHI to obtain bacterial concentrations approximately 2×10^6 cfu/ml.
The test antimicrobial compounds were prepared by diluting the compound with appropriate nutrient broth to obtain correct stock solution. 50 μl of BHI were aliquoted onto the wells of the round-bottomed microtitre plate. 50 μl of the antimicrobial compounds were added onto the wells in the first column of the plate and several serial double dilutions were performed along the wells on each row. Following the series of double dilutions of the test compound the bacterial suspension were added onto each well except on the last column which served as a negative control. The lowest concentration of the test compound which inhibited bacterial growth was regarded as MIC of the compound.

[6] = system: Acinetobater spp.; assay: activity against Acinetobacter spp.; assay type: cell-based; details: Gram-negative bacterium
[7] = Clostridium difficile Isolate 1
[8] = Clostridium difficile Isolate 2
[9] = Clostridium difficile Isolate 3
[10] = Clostridium difficile Isolate 4
[11] = Clostridium difficile Isolate 5
[12] = Clostridium difficile Isolate 6
[13] = Clostridium difficile Isolate 7
[14] = Clostridium difficile Isolate 8
[15] = Clostridium difficile Isolate 9
[16] = Clostridium difficile Isolate 10
[17] = Clostridium difficile Isolate 11
[18] = Clostridium difficile Isolate 12
[19] = Clostridium difficile Isolate 13
[20] = Clostridium difficile Isolate 14
[21] = Clostridium difficile Isolate 15
[22] = Clostridium difficile Isolate 16
[23] = Clostridium difficile Isolate 17
[24] = Clostridium difficile Isolate 18
[25] = Clostridium difficile Isolate 19
[26] = Clostridium difficile Isolate 20
[27] = Clostridium difficile Isolate 21
[28] = Clostridium difficile Isolate 22
[29] = Clostridium difficile Isolate 23
[30] = Clostridium difficile Isolate 24
[31] = Clostridium difficile Isolate 25
[32] = Clostridium difficile Isolate 26
[33] = Clostridium difficile Isolate 27
[34] = Clostridium difficile Isolate 28
[35] = Clostridium difficile Isolate 29
[36] = Clostridium difficile Isolate 30
[37] = Clostridium difficile Isolate 31
[38] = Clostridium difficile Isolate 32
[39] = Clostridium difficile NCTC 11204

Q: Which MIC [1] does the source give for `NC(=NN=Cc1ccc([N+](=O)[O-])o1)c1cc[n+]([O-])cc1` (mixture of isomers) [Compound 4PYOfi] here?
A: Its MIC is 32 to 64 µg/mL.

Q: And the MIC [2]?
A: Its MIC is 4 to 8 µg/mL.

Q: And the MIC [3, 7]?
A: Its MIC is 16 to 32 µg/mL.

Q: What about the MIC [3, 8] of the same compound?
A: Its MIC is 4 to 8 µg/mL.

Q: And the MIC [3, 9]?
A: Its MIC is 8 to 16 µg/mL.

Q: What about the MIC [3, 10] of the same compound?
A: Its MIC is 64 to 128 µg/mL.

Q: What about the MIC [3, 11] of the same compound?
A: The MIC was 2 to 4 µg/mL.

Q: What about the MIC [3, 12] of the same compound?
A: Its MIC is 16 to 32 µg/mL.

Q: And the MIC [3, 13]?
A: Its MIC is 32 to 64 µg/mL.

Q: What about the MIC [3, 14] of the same compound?
A: The MIC was 2 to 4 µg/mL.

Q: And the MIC [3, 15]?
A: The MIC was 128 to 256 µg/mL.

Q: And the MIC [3, 16]?
A: The MIC was 32 to 64 µg/mL.

Q: And the MIC [3, 17]?
A: Its MIC is 2 to 4 µg/mL.

Q: And the MIC [3, 18]?
A: The MIC was 2 to 4 µg/mL.

Q: And the MIC [3, 19]?
A: The MIC was 64 to 128 µg/mL.

Q: And the MIC [3, 20]?
A: Its MIC is 2 to 4 µg/mL.

Q: What about the MIC [3, 21] of the same compound?
A: The MIC was 2 to 4 µg/mL.

Q: And the MIC [3, 22]?
A: Its MIC is 2 to 4 µg/mL.

Q: What about the MIC [3, 23] of the same compound?
A: Its MIC is 1 to 2 µg/mL.

Q: And the MIC [3, 24]?
A: Its MIC is 1 to 2 µg/mL.

Q: And the MIC [3, 25]?
A: The MIC was 8 to 16 µg/mL.

Q: What about the MIC [3, 26] of the same compound?
A: The MIC was 2 to 4 µg/mL.

Q: And the MIC [3, 27]?
A: The MIC was 16 to 32 µg/mL.

Q: What about the MIC [3, 28] of the same compound?
A: Its MIC is 4 to 8 µg/mL.

Q: And the MIC [3, 29]?
A: The MIC was 2 to 4 µg/mL.

Q: What about the MIC [3, 30] of the same compound?
A: The MIC was 4 to 8 µg/mL.

Q: What about the MIC [3, 31] of the same compound?
A: Its MIC is 2 to 4 µg/mL.

Q: And the MIC [3, 32]?
A: Its MIC is 2 to 4 µg/mL.

Q: And the MIC [3, 33]?
A: Its MIC is 16 to 32 µg/mL.

Q: What about the MIC [3, 34] of the same compound?
A: The MIC was 16 to 32 µg/mL.

Q: And the MIC [3, 35]?
A: Its MIC is 4 to 8 µg/mL.

Q: What about the MIC [3, 36] of the same compound?
A: The MIC was 16 to 32 µg/mL.

Q: What about the MIC [3, 37] of the same compound?
A: Its MIC is 4 to 8 µg/mL.

Q: What about the MIC [3, 38] of the same compound?
A: The MIC was 4 to 8 µg/mL.

Q: And the MIC [3, 39]?
A: Its MIC is 2 to 4 µg/mL.

Q: What about the MBC [4, 7] of the same compound?
A: Its MBC is 32 to 64 µg/mL.

Q: And the MBC [4, 8]?
A: The MBC was 16 to 32 µg/mL.

Q: And the MBC [4, 9]?
A: Its MBC is 8 to 16 µg/mL.

Q: And the MBC [4, 10]?
A: Its MBC is 64 to 128 µg/mL.

Q: And the MBC [4, 11]?
A: The MBC was 2 to 4 µg/mL.

Q: What about the MBC [4, 12] of the same compound?
A: Its MBC is 16 to 32 µg/mL.

Q: What about the MBC [4, 13] of the same compound?
A: Its MBC is 32 to 64 µg/mL.

Q: And the MBC [4, 14]?
A: The MBC was 8 to 16 µg/mL.

Q: What about the MBC [4, 15] of the same compound?
A: Its MBC is 128 to 256 µg/mL.

Q: What about the MBC [4, 16] of the same compound?
A: The MBC was 32 to 64 µg/mL.

Q: And the MBC [4, 17]?
A: The MBC was 4 to 8 µg/mL.

Q: And the MBC [4, 18]?
A: The MBC was 4 to 8 µg/mL.

Q: And the MBC [4, 19]?
A: Its MBC is 128 to 256 µg/mL.

Q: What about the MBC [4, 20] of the same compound?
A: Its MBC is 4 to 8 µg/mL.

Q: What about the MBC [4, 21] of the same compound?
A: The MBC was 8 to 16 µg/mL.

Q: What about the MBC [4, 22] of the same compound?
A: Its MBC is 4 to 8 µg/mL.

Q: What about the MBC [4, 23] of the same compound?
A: The MBC was 2 to 4 µg/mL.

Q: What about the MBC [4, 24] of the same compound?
A: The MBC was 1 to 2 µg/mL.

Q: And the MBC [4, 25]?
A: The MBC was 16 to 32 µg/mL.

Q: And the MBC [4, 26]?
A: Its MBC is 4 to 8 µg/mL.

Q: What about the MBC [4, 27] of the same compound?
A: Its MBC is 16 to 32 µg/mL.

Q: And the MBC [4, 28]?
A: The MBC was 4 to 8 µg/mL.

Q: And the MBC [4, 29]?
A: The MBC was 2 to 4 µg/mL.

Q: What about the MBC [4, 30] of the same compound?
A: Its MBC is 4 to 8 µg/mL.

Q: And the MBC [4, 31]?
A: The MBC was 8 to 16 µg/mL.

Q: What about the MBC [4, 32] of the same compound?
A: Its MBC is 2 to 4 µg/mL.

Q: What about the MBC [4, 33] of the same compound?
A: The MBC was 16 to 32 µg/mL.

Q: What about the MBC [4, 34] of the same compound?
A: The MBC was 16 to 32 µg/mL.

Q: And the MBC [4, 35]?
A: The MBC was 8 to 16 µg/mL.

Q: What about the MBC [4, 36] of the same compound?
A: The MBC was 16 to 32 µg/mL.

Q: And the MBC [4, 37]?
A: The MBC was 8 to 16 µg/mL.

Q: What about the MBC [4, 38] of the same compound?
A: The MBC was 8 to 16 µg/mL.

Q: What about the MBC [4, 39] of the same compound?
A: Its MBC is 2 to 4 µg/mL.

Q: What about the MIC ([5]; P. acnes Isolate 1) of the same compound?
A: Its MIC is 8 to 16 µg/mL.

Q: And the MIC ([5]; P. acnes Isolate 2)?
A: Its MIC is 8 to 16 µg/mL.

Q: And the MIC ([5]; P. acnes Isolate 3)?
A: The MIC was 8 to 16 µg/mL.

Q: And the MIC ([5]; P. acnes Isolate 4)?
A: The MIC was 8 to 16 µg/mL.

Q: And the MIC ([5]; P. acnes Isolate 5)?
A: Its MIC is 16 to 32 µg/mL.

Q: What about the MIC ([5]; P. acnes Isolate 6) of the same compound?
A: The MIC was 8 to 16 µg/mL.

Q: And the MIC ([5]; P. acnes Isolate 7)?
A: The MIC was 8 to 16 µg/mL.

Q: What about the MIC ([5]; P. acnes NCTC 737) of the same compound?
A: The MIC was 16 to 32 µg/mL.

Q: What about the “activity against Acinetobater spp. (in words)” value [6] of the same compound?
A: Its value is “inactive”.
